Measured values reported in patent US8952150B2, “Prostaglandin transporter inhibitors and uses thereof” (Albert Einstein College of Medicine of Yeshiva University, priority 2009, dated 2015).
pIC50: −log10 of the molar value.

Molecular target: rat PGT (Rattus norvegicus (Rat), UniProt Q00910)
Assay: [3H]PGE2 uptake inhibition in MDCK cells stably transfected with rat PGT (percent inhibition and IC50)
Assay type: cell-based
Conditions: for Inh (% of Ctl) 0.1 μM: 0.1 μM compound; for Inh (% of Ctl) 0.1 μM / Inh (% of Ctl) 0.5 μM / Inh (% of Ctl) 1 μM: inhibition of [3H]PGE2 uptake; for Inh (% of Ctl) 0.5 μM: 0.5 μM compound; for pIC50: [3H]PGE2 uptake, MDCK cells stably transfected with rat PGT; for Inh (% of Ctl) 1 μM: 1 μM compound
Method in brief: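 Rat PGT-transfected MDCK cells, on day 4 after seeding, took up [3H]PGE2 in Waymouth buffer at room temperature, with compound (EtOH stock diluted in buffer) added immediately before tracer. Intracellular radioactivity counted after lysis; percent inhibition versus vehicle, IC50 by fitting y=m1−m1*(m0/(m2+m0)).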

Row | Compound | Inh (% of Ctl) 0.1 μM | Inh (% of Ctl) 0.5 μM | pIC50 | Inh (% of Ctl) 1 μM
1 | CCCCCCNC(=O)c1ccc(Nc2nc(NCCOCCNC(=O)c3ccccc3)nc(Nc3ccc(O)cc3)n2)cc1 [compound 119] | 57.2 % of Ctl | 81.4 % of Ctl |  | 
2 | CCCCCCNc1nc(Nc2ccc(O)cc2)nc(Nc2ccc(C(=O)NCc3ccccc3)cc2)n1 [compound 120] | 11.2 % of Ctl | 29.1 % of Ctl |  | 
3 | O=C(O)c1ccc(CNc2nc(NCCOCCOCCNC(=O)c3ccccc3)nc(Nc3ccc(C(=O)NCc4ccccc4)cc3)n2)cc1 [compound 121] | 1.0 % of Ctl | 28.8 % of Ctl |  | 
4 | COC(=O)Cc1ccc(Nc2nc(NCCOCCOCCNC(=O)c3ccccc3)nc(Nc3ccc(C(=O)NCc4ccccc4)cc3)n2)cc1 [compound 122] | 5.8 % of Ctl | 38.1 % of Ctl |  | 
5 | CN(c1ccc(O)cc1)c1nc(NCCOCCOCCNC(=O)c2ccccc2)nc(Nc2ccc(C(=O)NCc3ccccc3)cc2)n1 [compound 123] | 12.0 % of Ctl | 36.6 % of Ctl |  | 
6 | CN(c1ccc(C(=O)NCc2ccccc2)cc1)c1nc(NCCOCCOCCNC(=O)c2ccccc2)nc(Nc2ccc(O)cc2)n1 [compound 124] | 68.8 % of Ctl | 85.4 % of Ctl | 7.47 | 
7 | O=C(O)Cc1ccc(Nc2nc(NCCOCCOCCNC(=O)c3ccccc3)nc(Nc3ccc(C(=O)NCc4ccccc4)cc3)n2)cc1 [compound 125] | 3.2 % of Ctl | 24.3 % of Ctl |  | 
8 | O=C(NCCOCCOCCNc1nc(Nc2ccc(O)cc2)nc(Nc2ccc(C(=O)NCc3cccc(F)c3F)cc2)n1)c1ccccc1 [compound 126] | 24.0 % of Ctl | 56.3 % of Ctl |  | 70.0 % of Ctl
9 | O=C(NCCOCCOCCNc1nc(Nc2ccc(O)cc2)nc(Nc2ccc(C(=O)NCc3cc(F)ccc3F)cc2)n1)c1ccccc1 [compound 127] | 17.0 % of Ctl | 52.3 % of Ctl |  | 70.2 % of Ctl
10 | O=C(NCCOCCOCCNc1nc(Nc2ccc(O)cc2)nc(Nc2ccc(C(=O)NCc3c(F)cccc3F)cc2)n1)c1ccccc1 [compound 128] | 36.6 % of Ctl | 71.8 % of Ctl |  | 82.2 % of Ctl
11 | O=C(NCCOCCOCCNc1nc(Nc2ccc(O)cc2)nc(Nc2ccc(C(=O)NCc3ccc(F)c(F)c3)cc2)n1)c1ccccc1 [compound 129] | 8.9 % of Ctl | 45.1 % of Ctl |  | 65.6 % of Ctl
12 | O=C(NCCOCCOCCNc1nc(Nc2ccc(O)cc2)nc(Nc2ccc(C(=O)NCc3cc(F)cc(F)c3)cc2)n1)c1ccccc1 [compound 130] | 41.6 % of Ctl | 73.2 % of Ctl |  | 81.7 % of Ctl
13 | O=C(NCCOCCOCCNc1nc(Nc2ccc(O)cc2)nc(Nc2ccc(C(=O)NCc3ccc(F)cc3F)cc2)n1)c1ccccc1 [compound 131] | 22.3 % of Ctl | 47.0 % of Ctl |  | 74.3 % of Ctl
14 | N[C@@H](C(=O)NCCOCCNc1nc(Nc2ccc(O)cc2)nc(Nc2ccc(C(=O)NCc3ccccc3)cc2)n1)c1ccccc1 [compound 132] | 15.0 % of Ctl | 22.1 % of Ctl |  | 32.4 % of Ctl
15 | N[C@H](Cc1ccccc1)C(=O)NCCOCCNc1nc(Nc2ccc(O)cc2)nc(Nc2ccc(C(=O)NCc3ccccc3)cc2)n1 [compound 133] | 4.3 % of Ctl | 12.6 % of Ctl |  | 19.4 % of Ctl
16 | O=C(NCc1ccccc1)c1ccc(Nc2nc(NCCOCCNC(=O)c3ccccc3C(F)(F)F)nc(Nc3ccc(O)cc3)n2)cc1 [compound 134] | 14.0 % of Ctl | 27.7 % of Ctl |  | 46.7 % of Ctl
17 | O=C(NCCOCCNc1nc(Nc2ccc(O)cc2)nc(Nc2ccc(C(=O)NCc3ccccc3)cc2)n1)c1ccncc1 [compound 135] | 13.2 % of Ctl | 28.4 % of Ctl |  | 49.6 % of Ctl
18 | O=C(NCCOCCNc1nc(Nc2ccc(O)cc2)nc(Nc2ccc(C(=O)NCc3ccccc3)cc2)n1)c1ccc(F)cc1 [compound 136] | 33.3 % of Ctl | 64.1 % of Ctl | 7.62 | 77.9 % of Ctl
19 | COc1ccc(C(=O)NCCOCCNc2nc(Nc3ccc(O)cc3)nc(Nc3ccc(C(=O)NCc4ccccc4)cc3)n2)cc1 [compound 137] | 42.0 % of Ctl | 64.9 % of Ctl | 7.44 | 75.6 % of Ctl
20 | O=C(NCc1ccccc1)c1ccc(Nc2nc(NCCOCCNS(=O)(=O)c3ccccc3)nc(Nc3ccc(O)cc3)n2)cc1 [compound 138] | 17.8 % of Ctl | 22.5 % of Ctl |  | 34.5 % of Ctl
21 | O=C(NCCOCCNc1nc(Nc2ccc(O)cc2)nc(Nc2ccc(C(=O)NCc3ccccc3)cc2)n1)Nc1ccccc1 [compound 139] | 16.3 % of Ctl | 30.7 % of Ctl |  | 39.0 % of Ctl
22 | CC(=O)NCCOCCNc1nc(Nc2ccc(O)cc2)nc(Nc2ccc(C(=O)NCc3ccccc3)cc2)n1 [compound 140] | 11.5 % of Ctl | 4.5 % of Ctl |  | 10.9 % of Ctl
23 | O=C(NCc1ccccc1)c1ccc(Nc2nc(NCCOCCNCc3ccccc3)nc(Nc3ccc(O)cc3)n2)cc1 [compound 141] | 12.7 % of Ctl | 22.0 % of Ctl |  | 43.5 % of Ctl
24 | O=C(NCCOCCOCCNc1nc(Nc2ccc(C(=O)NCc3ccc(F)cc3)cc2)nc(Nc2ccc3[nH]cnc3c2)n1)c1ccccc1 [compound 142] | 8.4 % of Ctl | 20.1 % of Ctl |  | 39.2 % of Ctl
25 | O=C(NCCOCCOCCNc1nc(Nc2ccc(C(=O)NCc3ccc(F)cc3)cc2)nc(Nc2ccc(O)c(F)c2)n1)c1ccccc1 [compound 143] | 33.7 % of Ctl | 57.8 % of Ctl | 7.78 | 69.5 % of Ctl
